Measurements reported in patent publication US10124004B2, “Pyrido[3,4-d]pyrimidine derivative and pharmaceutically acceptable salt thereof” (Teijin Pharma Limited, priority 2015, dated 2018).
pIC50: −log10 of the molar value.

Molecular target: T1, CDK4/cyclin D3 (Homo sapiens, UniProt P11802)
T1 construct: purchased Carna Biosciences, Inc. QS S Assist CDK4/Cyclin D3_FP Kit
Test: Human CDK4/cyclin D3 inhibitory activity (QS S Assist CDK4/Cyclin D3_FP Kit, IMAP fluorescence polarization)
Assay type: biochemical
Conditions: Human CDK4/cyclin D3 inhibitory activity; read-out: CDK4 Activity symbol
Method: Human CDK4/Cyclin D3 Inhibitory Activity
Each compound was analyzed for CDK4/cyclin D3 inhibitory activity with an assay kit (QS S Assist CDK4/Cyclin D3_FP Kit, available from Carna Biosciences, Inc.). This assay kit determines kinase activity on the basis of the IMAP technology by Molecular Devices. Specifically, the kinase activity is determined through quantification of a variation in fluorescent polarization caused by binding of a kinase-phosphorylated fluorescent substance to an IMAP-binding reagent.
Each solution was prepared with the 10× assay buffer attached to the kit or a separately prepared assay buffer having the same composition as the assay buffer attached to the kit. An assay buffer was prepared by 10-fold dilution of the 10× assay buffer with distilled water. The assay buffer contains 20 mM HEPES (pH 7.4), 0.01% Tween20, and 2 mM dithiothreitol. A test compound solution was prepared by dilution of the test compound with dimethyl sulfoxide (DMSO) to a concentration 100 times higher than the final concentration and then 25-fold dilution with the assay buffer to a concentration four times higher than the final concentration. An ATP/substrate/Metal solution was prepared by five-fold dilution of the 5×ATP/substrate/Metal solution attached to the kit with the assay buffer. An enzyme solution was prepared by dilution of the CDK4/cyclin D3 attached to the kit with the assay buffer to a concentration twice higher than the final concentration (final concentration of CDK4/cyclin D3:12.5 to 25 ng/well). A detection reagent was prepared by five-fold dilution of each of 5× IMAP-binding buffer A and 5×IMAP-binding buffer B with distilled water, mixing of IMAP-binding buffer A with IMAP-binding buffer B at a ratio of 85:15, and 400-fold dilution of the IMAP-binding reagent with the mixed buffer.
The test compound solution (5 μL/well) and the ATP/substrate/Metal solution (5 μL/well) were added to a 384-well plate, and the enzyme solution or the assay buffer (10 μL/well) was added to the plate (total amount of the reaction mixture: 20 μL/well) for initiation of enzymatic reaction. […] The reaction was performed at room temperature for 45 minutes, and the detection reagent (60 μL/well) was then added to the plate, followed by further reaction for 30 minutes at room temperature under light shielding conditions. Subsequently, fluorescent polarization was determined with a microplate reader at an excitation wavelength of 485 nm and an emission wavelength of 535 nm.
The percent inhibition of enzyme activity was calculated for each test compound (note: enzyme activity=100% in the case of addition of the enzyme solution and addition of DMSO instead of the test compound solution, whereas enzyme activity=0% in the case of addition of the assay buffer instead of the enzyme solution, and addition of DMSO instead of the test compound solution). The percent inhibition of enzyme activity was fitted to a dose-response curve, to determine a 50% inhibitory concentration against CDK4/cyclin D3.
In each table, “+++” corresponds to IC50<10 nM, “++” 10 nM≤IC50<100 nM, and “+” 100 nM≤IC50.

T1 sequence (P11802 whole entry): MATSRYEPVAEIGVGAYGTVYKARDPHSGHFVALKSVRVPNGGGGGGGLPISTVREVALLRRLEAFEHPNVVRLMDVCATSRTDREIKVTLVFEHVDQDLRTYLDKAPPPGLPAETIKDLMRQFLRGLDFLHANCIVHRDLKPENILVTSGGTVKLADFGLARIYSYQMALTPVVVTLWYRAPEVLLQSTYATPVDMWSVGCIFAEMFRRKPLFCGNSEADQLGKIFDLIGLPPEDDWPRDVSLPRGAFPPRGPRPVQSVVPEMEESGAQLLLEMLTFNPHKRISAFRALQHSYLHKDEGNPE
T1 sequence (P30281 whole entry partner): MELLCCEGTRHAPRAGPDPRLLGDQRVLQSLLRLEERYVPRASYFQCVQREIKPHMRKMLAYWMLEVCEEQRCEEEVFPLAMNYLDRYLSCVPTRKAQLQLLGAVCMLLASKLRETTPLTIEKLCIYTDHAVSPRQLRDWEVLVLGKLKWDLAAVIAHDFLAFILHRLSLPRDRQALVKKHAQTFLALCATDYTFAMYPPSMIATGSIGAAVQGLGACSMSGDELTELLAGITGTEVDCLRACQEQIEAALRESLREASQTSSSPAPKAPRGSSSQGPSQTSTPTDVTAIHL

Row | Structure (SMILES) | pIC50
1 | COC(C)c1cc2cnc(Nc3ccc(CN4CCNCC4)cn3)nc2c(N[C@H]2CC[C@](C)(C(=O)O)CC2)n1 (stereo partly drawn) [Compound 436] | 7.00 to 8.00
2 | CC(C)Nc1nc(C(F)F)cc2cnc(Nc3ccc(N4CCNC(C)(C)C4=O)cn3)nc12 [Compound 438] | > 8.00
3 | CC(C)Nc1nc([C@@H](C)O)cc2cnc(Nc3ccc(N4CCNC(C)(C)C4=O)cn3)nc12 [Compound 440] | 7.00 to 8.00
4 | CC1(C)NCCN(c2ccc(Nc3ncc4cc(C(F)F)nc(N[C@H]5CC[C@H](O)CC5)c4n3)nc2)C1=O [Compound 443] | 7.00 to 8.00
5 | COc1ccc(Nc2nc(C(C)OC)cc3cnc(Nc4ccc(CN5CCNCC5)cn4)nc23)cc1 (stereo not drawn) [Compound 450] | > 8.00
6 | COC(C)c1cc2cnc(Nc3ccc(CN4CCNCC4)cn3)nc2c(NC23CC4CC(CC(O)(C4)C2)C3)n1 (stereo not drawn) [Compound 455] | > 8.00
7 | COC(C)c1cc2cnc(Nc3ccc(OCC4(N)CC4)cn3)nc2c(NC(C)C)n1 (stereo not drawn) [Compound 457] | > 8.00
8 | COC(C)c1cc2cnc(Nc3ccc(CN4CCNCC4)cn3)nc2c(N[C@H]2CC[C@H](OC(C)C)CC2)n1 (stereo partly drawn) [Compound 464] | > 8.00
9 | CO[C@H](C)c1cc2cnc(Nc3ccc(N4CCC(F)CC4)cn3)nc2c(NC(C)C)n1 [Compound 469] | 7.00 to 8.00
10 | CO[C@H](C)c1cc2cnc(Nc3ccc(OC4CCNCC4(F)F)cn3)nc2c(NC(C)C)n1 (stereo partly drawn) [Compound 473] | 7.00 to 8.00
11 | COC(C)c1cc2cnc(Nc3ccc(CN4CCNCC4)cn3)nc2c(NC23CCC(C(=O)O)(CC2)CC3)n1 (stereo not drawn) [Compound 475] | 7.00 to 8.00
12 | CO[C@H](C)c1cc2cnc(Nc3ccc(N4CC5(CNC5)C4)cn3)nc2c(NC(C)C)n1 [Compound 476] | > 8.00
13 | CO[C@H](C)c1cc2cnc(Nc3ccc(N4CC5(CCN5)C4)cn3)nc2c(NC(C)C)n1 [Compound 478] | > 8.00
14 | CO[C@H](C)c1cc2cnc(Nc3ccc(N4CC5(CCC5)C4)cn3)nc2c(NC(C)C)n1 [Compound 480] | 7.00 to 8.00
15 | CO[C@H](C)c1cc2cnc(Nc3ccc(OC4CC5(CNC5)C4)cn3)nc2c(NC(C)C)n1 [Compound 483] | > 8.00
16 | CO[C@H](C)c1cc2cnc(Nc3ccc(N4CC5(CC(N)C5)C4)cn3)nc2c(NC(C)C)n1 [Compound 484] | > 8.00
17 | CO[C@H](C)c1cc2cnc(Nc3ccc(NC4CC5(CNC5)C4)cn3)nc2c(NC(C)C)n1 [Compound 485] | > 8.00
18 | CO[C@H](C)c1cc2cnc(Nc3ccc(N4CCCN(C)CC4)nn3)nc2c(NC(C)C)n1 [Compound 488] | > 8.00
19 | CO[C@H](C)c1cc2cnc(Nc3ccc(N4CCNC4=O)cn3)nc2c(NC(C)C)n1 [Compound 498] | > 8.00
20 | CO[C@H](C)c1cc2cnc(Nc3ccc(N4C5CCC4CNC5)cn3)nc2c(NC(C)C)n1 [Compound 500] | > 8.00
21 | CO[C@H](C)c1cc2cnc(Nc3ccc(N4C5CCC4CC(N)C5)cn3)nc2c(NC(C)C)n1 (stereo partly drawn) [Compound 502] | > 8.00
22 | CO[C@H](C)c1cc2cnc(Nc3ccc(OC4CC5CCC(C4)N5)cn3)nc2c(NC(C)C)n1 (stereo partly drawn) [Compound 504] | > 8.00
23 | CO[C@H](C)c1cc2cnc(Nc3ccc(OCC4(N)CCC4)cn3)nc2c(NC(C)C)n1 [Compound 505] | 7.00 to 8.00
24 | CC(C)Nc1nc([C@@H](C)O)cc2cnc(Nc3ccc(N4CCN[C@H](C)C4=O)cn3)nc12 [Compound 506] | 7.00 to 8.00

Further lines, results first:

Row | pIC50 | Structure (SMILES)
25 | ≤ 7.00 | COC(C)c1cc2cnc(Nc3ccc(CN4CCNCC4)cn3)nc2c(N[C@H]2CC[C@@](C)(C(=O)O)CC2)n1 (stereo partly drawn) [Compound 437]
26 | 7.00 to 8.00 | CC1(C)NCCN(c2ccc(Nc3ncc4cc(C(F)F)nc(NC5CCOCC5)c4n3)nc2)C1=O [Compound 439]
27 | ≤ 7.00 | C[C@@H](O)c1cc2cnc(Nc3ccc(N4CCNC(C)(C)C4=O)cn3)nc2c(NC2CCOCC2)n1 [Compound 441]
28 | ≤ 7.00 | CC1(C)NCCN(c2ccc(Nc3ncc4cc(C(F)F)nc(N[C@H]5CC[C@H](C(=O)O)CC5)c4n3)nc2)C1=O [Compound 442]
29 | ≤ 7.00 | CO[C@H](C)c1cc2cnc(Nc3ccc(N4CCNC(C)(C)C4=O)cn3)nc2c(NC(C)C)n1 [Compound 444]
30 | > 8.00 | COC(C)c1cc2cnc(Nc3ccc(CN4CCNCC4)cn3)nc2c(NC2CCCCCC2)n1 (stereo not drawn) [Compound 445]
31 | 7.00 to 8.00 | COC(C)c1cc2cnc(Nc3ccc(CN4CCNCC4)cn3)nc2c(Nc2ccc(F)cc2)n1 (stereo not drawn) [Compound 446]
32 | 7.00 to 8.00 | COC(C)c1cc2cnc(Nc3ccc(CN4CCNCC4)cn3)nc2c(Nc2cccc(F)c2)n1 (stereo not drawn) [Compound 447]
33 | ≤ 7.00 | COC(C)c1cc2cnc(Nc3ccc(CN4CCNCC4)cn3)nc2c(Nc2ccc(C(=O)O)cc2)n1 (stereo not drawn) [Compound 448]
34 | ≤ 7.00 | COC(C)c1cc2cnc(Nc3ccc(CN4CCNCC4)cn3)nc2c(Nc2cccc(C(=O)O)c2)n1 (stereo not drawn) [Compound 449]
35 | > 8.00 | COc1cccc(Nc2nc(C(C)OC)cc3cnc(Nc4ccc(CN5CCNCC5)cn4)nc23)c1 (stereo not drawn) [Compound 451]
36 | > 8.00 | CNC1CCN(c2ccc(Nc3ncc4cc(C(C)OC)nc(NC(C)C)c4n3)nn2)CC1 (stereo not drawn) [Compound 452]
37 | > 8.00 | COC(C)c1cc2cnc(Nc3ccc(N4CCCNCC4)cn3)nc2c(NC(C)C)n1 (stereo not drawn) [Compound 453]
38 | > 8.00 | COC(C)c1cc2cnc(Nc3ccc(CN4CCNCC4)cn3)nc2c(NCC2(C)CC(O)CC(C)(C)C2)n1 (stereo not drawn) [Compound 454]
39 | > 8.00 | COC(C)c1cc2cnc(Nc3ccc(OCC(C)(C)N)cn3)nc2c(NC(C)C)n1 (stereo not drawn) [Compound 458]
40 | 7.00 to 8.00 | CNC1(COc2ccc(Nc3ncc4cc(C(C)OC)nc(NC(C)C)c4n3)nc2)CC1 (stereo not drawn) [Compound 461]
41 | 7.00 to 8.00 | CO[C@H](C)c1cc2cnc(Nc3ccc(N4CCN[C@H](C)C4=O)cn3)nc2c(NC(C)C)n1 [Compound 462]
42 | > 8.00 | COC(C)c1cc2cnc(Nc3ccc(CN4CCNCC4)cn3)nc2c(NCC2CC(F)(F)C2)n1 (stereo not drawn) [Compound 465]

Row | pIC50 | Structure (SMILES)
43 | > 8.00 | COC(C)c1cc2cnc(Nc3ccc(CN4CCNCC4)cn3)nc2c(NC2CCCOCC2)n1 (stereo not drawn) [Compound 468]
44 | ≤ 7.00 | CO[C@H](C)c1cc2cnc(Nc3ccc(N4CCC(F)(F)CC4)cn3)nc2c(NC(C)C)n1 [Compound 470]
45 | 7.00 to 8.00 | CO[C@H](C)c1cc2cnc(Nc3ccc(OCCN(C)C)nn3)nc2c(NC(C)C)n1 [Compound 471]
46 | 7.00 to 8.00 | CO[C@H](C)c1cc2cnc(Nc3ccc(CN4CCC(F)CC4)cn3)nc2c(NC(C)C)n1 [Compound 472]
47 | > 8.00 | CO[C@H](C)c1cc2cnc(Nc3ccc(N4CC5(CCCNC5)C4)cn3)nc2c(NC(C)C)n1 [Compound 477]
48 | > 8.00 | CO[C@H](C)c1cc2cnc(Nc3ccc(N4CC5(CCNC5)C4)cn3)nc2c(NC(C)C)n1 [Compound 479]
49 | 7.00 to 8.00 | CO[C@H](C)c1cc2cnc(Nc3ccc(N4CCC5(CC4)COC5)cn3)nc2c(NC(C)C)n1 [Compound 481]
50 | > 8.00 | CO[C@H](C)c1cc2cnc(Nc3ccc(N4CC5(CCNCC5)C4)cn3)nc2c(NC(C)C)n1 [Compound 482]
51 | > 8.00 | CO[C@H](C)c1cc2cnc(Nc3ccc(N4CC5(CCCN5)C4)cn3)nc2c(NC(C)C)n1 [Compound 486]
52 | > 8.00 | CO[C@H](C)c1cc2cnc(Nc3ccc(OCC(F)CN(C)C)cn3)nc2c(NC(C)C)n1 (stereo partly drawn) [Compound 487]
53 | > 8.00 | CO[C@H](C)c1cc2cnc(Nc3ccc(N4CCC(N(C)C)CC4)nn3)nc2c(NC(C)C)n1 [Compound 489]
54 | > 8.00 | CC(C)Nc1nc([C@@H](C)O)cc2cnc(Nc3ccc(N4CCCN(C)CC4)nn3)nc12 [Compound 490]
55 | > 8.00 | CO[C@H](C)c1cc2cnc(Nc3ccc(CN4CCCNCC4)cn3)nc2c(NC(C)C)n1 [Compound 493]
56 | > 8.00 | CO[C@H](C)c1cc2cnc(Nc3ccc(CN4CCC(O)CC4)cn3)nc2c(NC(C)C)n1 [Compound 494]
57 | > 8.00 | CO[C@H](C)c1cc2cnc(Nc3ccc(N4CCCNCC4)nn3)nc2c(NC(C)C)n1 [Compound 495]
58 | > 8.00 | CC(C)Nc1nc([C@@H](C)O)cc2cnc(Nc3ccc(N4CCCNCC4)nn3)nc12 [Compound 496]
59 | > 8.00 | CNC1C2CCC1CN(c1ccc(Nc3ncc4cc([C@@H](C)OC)nc(NC(C)C)c4n3)nc1)C2 (stereo partly drawn) [Compound 503]
60 | 7.00 to 8.00 | COC(C)c1cc2cnc(Nc3ccc(CN4CCNCC4)cn3)nc2c(NC2CC3(C2)CC(C(=O)O)C3)n1 (stereo not drawn) [Compound 513]
